This passage reports IC50 results from patent publication US12685726B2, “Sulfoximines as inhibitors of NaV1.8” (Gruenenthal GmbH, priority 2022, dated 2026).

The assay has as its target T1, human NaV 1.8 (Homo sapiens, UniProt Q9Y5Y9).
T1 construct: expressed in transfected cells; host or cells: HEK (recombinant cell line)
Description: Automated whole-cell patch clamp (Qube384) voltage-clamp recordings of sodium currents in HEK-NaV1.8 cell line. As to conditions: read-out: Potency category (human NaV 1.8 IC50). Format: cell-based. The method, boiled down:
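HEK cells expressing NaV1.8 with b3, whole-cell automated voltage clamp at room temperature or 19° C.; CsF-based internal, pH 7.4 external. State-dependent (−120 mV, V1/2 4 s, −10 mV test pulses) and 10/20 Hz 40-pulse protocols; ~12 min compound, vehicle-corrected, IC50 by 4-parameter logistic fit.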
(In general: Patch clamp records ionic current or voltage across a cell membrane.)

T1 sequence (Q9Y5Y9 whole entry): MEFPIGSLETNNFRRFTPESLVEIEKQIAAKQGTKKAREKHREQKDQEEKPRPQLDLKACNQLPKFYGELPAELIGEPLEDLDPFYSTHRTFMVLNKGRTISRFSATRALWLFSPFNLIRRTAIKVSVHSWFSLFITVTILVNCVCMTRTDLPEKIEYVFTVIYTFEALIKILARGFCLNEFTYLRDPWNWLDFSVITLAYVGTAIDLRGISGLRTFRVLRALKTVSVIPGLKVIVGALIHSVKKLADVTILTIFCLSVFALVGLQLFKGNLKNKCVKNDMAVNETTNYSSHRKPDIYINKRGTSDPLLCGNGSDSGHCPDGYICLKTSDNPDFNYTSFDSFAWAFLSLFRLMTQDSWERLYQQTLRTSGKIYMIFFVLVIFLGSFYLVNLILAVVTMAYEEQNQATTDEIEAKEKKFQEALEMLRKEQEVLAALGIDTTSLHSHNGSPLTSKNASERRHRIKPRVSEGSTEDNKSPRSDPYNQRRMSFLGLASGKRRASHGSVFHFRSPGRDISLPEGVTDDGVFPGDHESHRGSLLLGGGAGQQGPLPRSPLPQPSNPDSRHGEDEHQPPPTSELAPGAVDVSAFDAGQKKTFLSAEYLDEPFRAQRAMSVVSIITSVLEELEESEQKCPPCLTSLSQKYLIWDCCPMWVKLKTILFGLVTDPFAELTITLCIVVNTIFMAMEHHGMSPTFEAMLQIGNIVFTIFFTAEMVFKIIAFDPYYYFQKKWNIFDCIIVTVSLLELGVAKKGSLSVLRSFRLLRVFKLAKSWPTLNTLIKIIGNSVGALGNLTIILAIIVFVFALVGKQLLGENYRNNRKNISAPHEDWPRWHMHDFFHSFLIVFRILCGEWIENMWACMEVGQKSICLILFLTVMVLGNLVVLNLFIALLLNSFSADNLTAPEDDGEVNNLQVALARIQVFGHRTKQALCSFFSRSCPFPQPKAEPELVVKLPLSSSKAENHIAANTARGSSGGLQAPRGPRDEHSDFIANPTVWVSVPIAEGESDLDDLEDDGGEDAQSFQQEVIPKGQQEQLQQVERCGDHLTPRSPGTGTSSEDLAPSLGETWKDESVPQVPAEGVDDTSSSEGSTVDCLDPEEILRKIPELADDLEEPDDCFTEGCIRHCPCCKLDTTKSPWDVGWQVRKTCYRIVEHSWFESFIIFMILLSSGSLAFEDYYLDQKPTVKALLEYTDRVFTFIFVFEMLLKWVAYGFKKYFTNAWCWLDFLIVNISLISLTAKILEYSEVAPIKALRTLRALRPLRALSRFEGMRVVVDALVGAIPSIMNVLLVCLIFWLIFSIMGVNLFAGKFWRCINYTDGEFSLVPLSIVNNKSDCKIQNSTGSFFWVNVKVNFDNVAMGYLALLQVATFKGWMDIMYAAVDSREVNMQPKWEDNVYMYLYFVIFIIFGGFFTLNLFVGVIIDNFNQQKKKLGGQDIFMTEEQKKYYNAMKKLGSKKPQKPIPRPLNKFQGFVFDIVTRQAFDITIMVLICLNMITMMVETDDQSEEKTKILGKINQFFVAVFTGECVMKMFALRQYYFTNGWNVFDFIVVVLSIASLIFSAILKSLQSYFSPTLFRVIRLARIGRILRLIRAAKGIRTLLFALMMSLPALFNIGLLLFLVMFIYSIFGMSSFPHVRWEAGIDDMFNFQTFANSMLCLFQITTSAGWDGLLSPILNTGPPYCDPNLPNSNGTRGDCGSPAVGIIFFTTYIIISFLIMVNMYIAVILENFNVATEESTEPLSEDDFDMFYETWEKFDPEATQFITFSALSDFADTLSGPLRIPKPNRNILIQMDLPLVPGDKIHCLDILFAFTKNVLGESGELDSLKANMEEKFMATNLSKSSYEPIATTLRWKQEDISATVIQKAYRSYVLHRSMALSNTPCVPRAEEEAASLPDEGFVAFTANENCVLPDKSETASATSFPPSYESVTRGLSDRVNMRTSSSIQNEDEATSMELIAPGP

In the case of `C[S@@](=N)(=O)c1cccc(NC(=O)c2c(C(F)(F)F)c(C3(F)CC3)nn2CC2C[C@H]2C(F)(F)F)c1` (single isomer, unassigned) [Example 134c, 3-(1-Fluorocyclopropyl)-N-(3-(S-methylsulfonimidoyl)phenyl)-4-(trifluoromethyl)-1-(((trans)-2-(trifluoromethyl)cyclopropyl)methyl)-1H-pyrazole-5-carboxamide], the IC50 (usually the concentration that inhibits the measured activity by half) is not above 100 nM.
On to `CC1(Cn2nc(C34CC(C3)C4(F)F)c(C(F)(F)F)c2C(=O)Nc2ccnc(S(C)(=N)=O)c2)CC(F)(F)C1` (single isomer, unassigned) [Example 114, 1-((3,3-Difluoro-1-methylcyclobutyl)methyl)-3-(2,2-difluorobicyclo[1.1.1]pentan-1-yl)-N-(2-(S-methylsulfonimidoyl)pyridin-4-yl)-4-(trifluoromethyl)-1H-pyrazole-5-carboxamide], for which the IC50 is not above 100 nM.
Then `CS(=N)(=O)c1cc(NC(=O)c2c(C(F)(F)F)c(C3CC3)nn2CC2C(F)(F)C23CCC3)ccn1` (single isomer, unassigned) [Example 136d, 3-Cyclopropyl-1-((2,2-difluorospiro[2.3]hexan-1-yl)methyl)-N-(2-(S-methylsulfonimidoyl)pyridin-4-yl)-4-(trifluoromethyl)-1H-pyrazole-5-carboxamide], with not above 100 nM; and `CC1(Cn2nc(C(C)(C)F)c(C(F)(F)F)c2C(=O)Nc2ccnc(S(C)(=N)=O)c2)CC(F)(F)C1` (single isomer, unassigned) [Example 148b, 1-((3,3-Difluoro-1-methylcyclobutyl)methyl)-3-(2-fluoropropan-2-yl)-N-(2-(S-methylsulfonimidoyl)pyridin-4-yl)-4-(trifluoromethyl)-1H-pyrazole-5-carboxamide], with not above 100 nM; and `C[C@H]1C[C@@H]1c1nn(CC2(C)CC(F)(F)C2)c(C(=O)Nc2ccnc([S@@](C)(=N)=O)c2)c1C(F)(F)F` (single isomer, unassigned) [Example 65b, 1-((3,3-Difluoro-1-methylcyclobutyl)methyl)-3-((trans)-2-methylcyclopropyl)-N-(2-(S-methylsulfonimidoyl)pyridin-4-yl)-4-(trifluoromethyl)-1H-pyrazole-5-carboxamide], with not above 100 nM.
In the case of `C[S@@](=N)(=O)c1cc(NC(=O)c2c(C(F)(F)F)c(C3CC3)nn2C[C@]2(C)C[C@@H](C(F)(F)F)C2)ccn1` (single isomer, unassigned) [Example 86c, 3-cyclopropyl-1-(((cis)-1-methyl-3-(trifluoromethyl)cyclobutyl)methyl)-N-(2-(S-methylsulfonimidoyl)pyridin-4-yl)-4-(trifluoromethyl)-1H-pyrazole-5-carboxamide], the IC50 is not above 100 nM.
As to `CC(=O)N1CC2(CCC2Cn2nc(C3CC3)c(C(F)(F)F)c2C(=O)Nc2ccnc(S(C)(=N)=O)c2)C1` (single isomer, unassigned) [Example 140a, 1-((2-Acetyl-2-azaspiro[3.3]heptan-5-yl)methyl)-3-cyclopropyl-N-(2-(S-methylsulfonimidoyl)pyridin-4-yl)-4-(trifluoromethyl)-1H-pyrazole-5-carboxamide], the IC50 is 100 to 1000 nM.
In the case of `CC(=O)N1CC2(CCC2Cn2nc(C3CC3)c(C(F)(F)F)c2C(=O)Nc2ccnc(S(C)(=N)=O)c2)C1` (single isomer, unassigned) [Example 140b, 1-((2-Acetyl-2-azaspiro[3.3]heptan-5-yl)methyl)-3-cyclopropyl-N-(2-(S-methylsulfonimidoyl)pyridin-4-yl)-4-(trifluoromethyl)-1H-pyrazole-5-carboxamide] it was 100 to 1000 nM; in that of `CC1(Cn2nc(C3(C)CC3)c(C(F)(F)F)c2C(=O)Nc2ccnc(S(C)(=N)=O)c2)CC(F)(F)C1` (single isomer, unassigned) [Example 69b, 1-((3,3-difluoro-1-methylcyclobutyl)methyl)-3-(1-methylcyclopropyl)-N-(2-(S-methylsulfonimidoyl)pyridin-4-yl)-4-(trifluoromethyl)-1H-pyrazole-5-carboxamide], not above 100 nM.
As to `CS(=N)(=O)c1cc(NC(=O)c2c(C(F)(F)F)c(C3CC3)nn2CC23CC2CC(F)(F)C3)ccn1` (single isomer, unassigned) [Example 95a, 3-Cyclopropyl-1-((3,3-difluorobicyclo[3.1.0]hexan-1-yl)methyl)-N-(2-(S-methylsulfonimidoyl)pyridin-4-yl)-4-(trifluoromethyl)-1H-pyrazole-5-carboxamide], the IC50 was not above 100 nM.
For `CC1(Cn2nc(C3(F)CC3)c(C(F)(F)F)c2C(=O)Nc2cccc(S(C)(=N)=O)c2)CC(F)(F)C1` (single isomer, unassigned) [Example 109a, 1-((3,3-Difluoro-1-methylcyclobutyl)methyl)-3-(1-fluorocyclopropyl)-N-(3-(S-methylsulfonimidoyl)phenyl)-4-(trifluoromethyl)-1H-pyrazole-5-carboxamide], the IC50 is not above 100 nM.
Then `Cc1c(C(C)(F)F)nn(CC2(C)CCC(F)(F)CC2)c1C(=O)Nc1ccnc(S(C)(=N)=O)c1` (single isomer, unassigned) [Example 11a, 1-((4,4-difluoro-1-methylcyclohexyl)methyl)-3-(1,1-difluoroethyl)-4-methyl-N-(2-(S-methylsulfonimidoyl)pyridin-4-yl)-1H-pyrazole-5-carboxamide], with not above 100 nM.
In the case of `CC1(Cn2nc(C(C)(F)F)c(C(F)(F)F)c2C(=O)Nc2ccnc(S(C)(=N)=O)c2)CC(F)(F)C1` (single isomer, unassigned) [Example 75b, 1-((3,3-difluoro-1-methylcyclobutyl)methyl)-3-(1,1-difluoroethyl)-N-(2-(S-methylsulfonimidoyl)pyridin-4-yl)-4-(trifluoromethyl)-1H-pyrazole-5-carboxamide] it was not above 100 nM; in that of `CC1(Cn2nc(C34CC(F)(C3)C4)c(C(F)(F)F)c2C(=O)Nc2cccc(S(C)(=N)=O)c2)CC(F)(F)C1` (single isomer, unassigned) [Example 111a, 1-((3,3-difluoro-1-methylcyclobutyl)methyl)-3-(3-fluorobicyclo[1.1.1]pentan-1-yl)-N-(3-(S-methylsulfonimidoyl)phenyl)-4-(trifluoromethyl)-1H-pyrazole-5-carboxamide], not above 100 nM.
Turning to `CS(=N)(=O)c1cc(NC(=O)c2c(C(F)(F)F)c(C3CC3)nn2CC2CCC(F)(F)C2)ccn1` (single isomer, unassigned) [Example 7a, 3-cyclopropyl-1-((3,3-difluorocyclopentyl)methyl)-N-(2-(S-methylsulfonimidoyl)pyridin-4-yl)-4-(trifluoromethyl)-1H-pyrazole-5-carboxamide], the IC50 was not above 100 nM.
As to `Cc1cc(NC(=O)c2c(C(F)(F)F)c(C3CC3)nn2CC2(C)CC(F)(F)C2)cc(S(C)(=N)=O)n1` (single isomer, unassigned) [Example 50a, 3-cyclopropyl-1-((3,3-difluoro-1-methylcyclobutyl)methyl)-N-(2-methyl-6-(S-methylsulfonimidoyl)pyridin-4-yl)-4-(trifluoromethyl)-1H-pyrazole-5-carboxamide], the 50% inhibitory concentration (IC50) was not above 100 nM.
Consider `Cc1c(C(C)(F)F)nn(CC2(C)CC(F)(F)C2)c1C(=O)Nc1ccnc(S(C)(=N)=O)c1` (single isomer, unassigned) [Example 5a, 1-((3,3-difluoro-1-methylcyclobutyl)methyl)-3-(1,1-difluoroethyl)-4-methyl-N-(2-(S-methylsulfonimidoyl)pyridin-4-yl)-1H-pyrazole-5-carboxamide], for which the IC50 was not above 100 nM.
`CS(=N)(=O)c1cc(NC(=O)c2c(C(F)(F)F)c(C3CC3)nn2CC23CC(C(F)(F)F)(C2)C3)ccn1` (single isomer, unassigned) [Example 23b, 3-cyclopropyl-N-(2-(S-methylsulfonimidoyl)pyridin-4-yl)-4-(trifluoromethyl)-1-((3-(trifluoromethyl)bicyclo[1.1.1]pentan-1-yl)methyl)-1H-pyrazole-5-carboxamide]: the IC50 is not above 100 nM.
Consider `CC1(Cn2nc(C3(F)CC3)c(C(F)(F)F)c2C(=O)Nc2cccc(S(=N)(=O)C(F)F)c2)CC(F)(F)C1` (single isomer, unassigned) [Example 130b, 1-((3,3-Difluoro-1-methylcyclobutyl)methyl)-N-(3-(S-(difluoromethyl)sulfonimidoyl)phenyl)-3-(1-fluorocyclopropyl)-4-(trifluoromethyl)-1H-pyrazole-5-carboxamide], for which the IC50 is not above 100 nM.
Consider `COC1(c2nn(CC3(C)CC(F)(F)C3)c(C(=O)Nc3ccnc(S(C)(=N)=O)c3)c2C(F)(F)F)CC1` (single isomer, unassigned) [Example 71b, 1-((3,3-difluoro-1-methylcyclobutyl)methyl)-3-(1-methoxycyclopropyl)-N-(2-(S-methylsulfonimidoyl)pyridin-4-yl)-4-(trifluoromethyl)-1H-pyrazole-5-carboxamide], for which the concentration for half-maximal inhibition (IC50) is not above 100 nM.
Then `CC1(Cn2nc(C(C)(C)C)c(C(F)(F)F)c2C(=O)Nc2ccnc(S(C)(=N)=O)c2)CC(F)(F)C1` (single isomer, unassigned) [Example 143a, 3-(Tert-butyl)-1-((3,3-difluoro-1-methylcyclobutyl)methyl)-N-(2-(S-methylsulfonimidoyl)pyridin-4-yl)-4-(trifluoromethyl)-1H-pyrazole-5-carboxamide], with not above 100 nM; and `CC1(Cn2nc(C3CC4(CC4)C3)c(C(F)(F)F)c2C(=O)Nc2ccnc(S(C)(=N)=O)c2)CC(F)(F)C1` (single isomer, unassigned) [Example 61b, 1-((3,3-Difluoro-1-methylcyclobutyl)methyl)-N-(2-(S-methylsulfonimidoyl)pyridin-4-yl)-3-(spiro[2.3]hexan-5-yl)-4-(trifluoromethyl)-1H-pyrazole-5-carboxamide], with not above 100 nM.
